Assay results reported in BindingDB's records for doi:10.1021/jm030817d (Glaxosmithkline Pharmaceuticals, 2003).

target: D(3) dopamine receptor (Homo sapiens, UniProt P35462); experiment: Binding affinity against human Dopamine receptor D3 expressed in CHO cells by using [125I]iodosulpiride as radioligand
Sequence (P35462 as listed by the source): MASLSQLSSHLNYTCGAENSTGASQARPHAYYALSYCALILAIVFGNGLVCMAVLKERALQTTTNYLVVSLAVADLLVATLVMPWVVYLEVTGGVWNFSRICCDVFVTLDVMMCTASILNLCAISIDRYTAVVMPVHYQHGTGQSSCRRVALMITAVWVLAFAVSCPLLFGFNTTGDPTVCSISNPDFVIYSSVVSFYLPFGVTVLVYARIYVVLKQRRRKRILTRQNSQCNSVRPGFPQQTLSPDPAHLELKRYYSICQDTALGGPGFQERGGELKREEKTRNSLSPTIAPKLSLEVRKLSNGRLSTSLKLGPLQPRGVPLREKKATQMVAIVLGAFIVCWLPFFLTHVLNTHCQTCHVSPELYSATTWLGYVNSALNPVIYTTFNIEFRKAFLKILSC

Ki [nM] | Structure (SMILES)
1.3 | CS(=O)(=O)c1ccc2c(c1)CCN(CC[C@H]1CC[C@H](NC(=O)C=Cc3ccccc3F)CC1)CC2
1.3 | CS(=O)(=O)Oc1ccc2c(c1)CCN(CC[C@H]1CC[C@H](NC(=O)C=Cc3ccccc3F)CC1)CC2
1.3 | COc1ccccc1C=CC(=O)N[C@H]1CC[C@H](CCN2CCc3ccc(OS(C)(=O)=O)cc3CC2)CC1
1.3 | CS(=O)(=O)Oc1ccc2c(c1)CCN(CC[C@H]1CC[C@H](NC(=O)C=Cc3cccc(F)c3)CC1)CC2
